Test results reported in ChEMBL document CHEMBL1133897, “Synthesis, antimalarial activity and inhibition of haem detoxification of novel bisquinolines” (Bioorg Med Chem Lett, 2001).

Legend:
[1] = biological target: T1, Histidine-rich protein PFHRP-II (Plasmodium falciparum, UniProt P05227); test: Inhibition of beta-hematin formation in Plasmodium falciparum; assay type: functional
T1 sequence (P05227 whole entry): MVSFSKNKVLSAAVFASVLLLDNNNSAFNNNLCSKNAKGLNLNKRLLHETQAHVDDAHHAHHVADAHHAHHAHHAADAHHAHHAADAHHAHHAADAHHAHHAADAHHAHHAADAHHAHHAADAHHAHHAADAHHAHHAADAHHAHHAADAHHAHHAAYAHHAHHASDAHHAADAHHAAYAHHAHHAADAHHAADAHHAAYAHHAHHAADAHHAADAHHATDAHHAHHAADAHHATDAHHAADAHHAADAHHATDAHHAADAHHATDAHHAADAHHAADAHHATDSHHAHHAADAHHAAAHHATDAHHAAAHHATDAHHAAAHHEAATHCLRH

[2] = system: Plasmodium falciparum; test: Inhibition of hydrogen peroxide-mediated haem detoxification in Plasmodium falciparum; assay type: functional, organism-based
[3] = system: Plasmodium falciparum; test: Growth inhibition of chloroquine-sensitive Plasmodium falciparum D10; assay type: functional, organism-based
[4] = system: Plasmodium falciparum; test: Growth inhibition of chloroquine-resistant Plasmodium falciparum KI; assay type: functional, organism-based

Compound `CCN(CC)CCCC(C)Nc1cc(CCCCCCCCCCCCc2cc(NC(C)CCCN(CC)CC)c3ccccc3n2)nc2ccccc12` (stereo unspecified) has an IC50 [1] of 86 µM, an IC50 [2] of 37 µM and an IC50 [3] of 43 nM. The IC50 [4] was 17 nM.

Compound `CCC1CN2CCC1CC2C(O)c1ccnc2c(CNC(=O)CCCCCCCCC(=O)Nc3cccc4c(C(O)C5CC6CCN5CC6CC)ccnc34)cccc12` (stereo unspecified) has an IC50 [3] of 50 nM and an IC50 [4] of 20 nM.

With `CCN(CC)CCCC(C)Nc1cc(CCCCCCCCCCc2cc(NC(C)CCCN(CC)CC)c3ccccc3n2)nc2ccccc12` (stereo unspecified) the IC50 [1] was 94 µM, the IC50 [2] was 80 µM and the IC50 [3] was 154 nM. For the same compound, the IC50 [4] was 16 nM.

`CCN(CC)CCCC(C)Nc1cc(CCCCCCCCc2cc(NC(C)CCCN(CC)CC)c3ccccc3n2)nc2ccccc12` (stereo unspecified) gave an IC50 [1] of 97 µM, an IC50 [2] of 81 µM and an IC50 [3] of 123 nM. The IC50 [4] was 25 nM.

With `OC(c1cc(C(F)(F)F)nc2c(C(F)(F)F)cccc12)C1CCCCN1` (stereo unspecified) [MEFLOQUINE] the IC50 [2] was 30 µM and the IC50 [3] was 90 nM.
